Molecular target: T1, human PAH with the R408W mutation (Homo sapiens, UniProt P00439, R408W)
T1 construct: expressed in transfected cells
T1 sequence (P00439 1-452 R408W): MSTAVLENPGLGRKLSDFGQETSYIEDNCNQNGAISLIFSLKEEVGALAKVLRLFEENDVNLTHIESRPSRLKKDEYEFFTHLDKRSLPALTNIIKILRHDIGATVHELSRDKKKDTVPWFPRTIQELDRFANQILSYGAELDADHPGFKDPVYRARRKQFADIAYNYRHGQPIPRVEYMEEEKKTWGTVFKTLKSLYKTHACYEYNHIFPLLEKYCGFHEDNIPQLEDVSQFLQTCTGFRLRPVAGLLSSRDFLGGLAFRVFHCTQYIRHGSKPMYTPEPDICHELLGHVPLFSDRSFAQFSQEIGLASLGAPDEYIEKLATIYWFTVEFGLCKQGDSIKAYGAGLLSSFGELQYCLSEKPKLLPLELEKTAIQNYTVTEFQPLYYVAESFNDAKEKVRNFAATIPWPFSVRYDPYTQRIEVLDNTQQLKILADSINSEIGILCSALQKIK
Experiment: Cell Based Phenylalanine Flux Assay
Settings: A375 cells expressing human R408W PAH; 24 hrs compound incubation; 13C-Tyrosine by LC-MS; average where tested multiple times; read-out: AC50

| Structure (SMILES) | AC50 |
| --- | --- |
| O=C(c1cnn2ccccc12)N1CCc2[nH]cnc2[C@H]1c1cn2ccccc2n1 [Example 225, (R)-(4-(imidazo[1,2-a]pyridin-2-yl)-6,7-dihydro-1H-imidazo[4,5-c]pyridin-5(4H)-yl)(pyrazolo[1,5-a]pyridin-3-yl)methanone] | < 0.5 µM |
| O=C(c1cnn2ccccc12)N1CCc2[nH]cnc2[C@@H]1c1cn2ccccc2n1 [Example 226, (S)-(4-(imidazo[1,2-a]pyridin-2-yl)-6,7-dihydro-1H-imidazo[4,5-c]pyridin-5(4H)-yl)(pyrazolo[1,5-a]pyridin-3-yl)methanone] | > 5 µM |
| FC(F)c1nnc(N2CCc3[nH]cnc3[C@H]2c2cn3ccccc3n2)o1 [Example 230, (R)-2-(difluoromethyl)-5-(4-(imidazo[1,2-a]pyridin-2-yl)-6,7-dihydro-1H-imidazo[4,5-c]pyridin-5(4H)-yl)-1,3,4-oxadiazole] | 0.5 to 1 µM |
| FC(F)(F)c1cnc(N2CCc3[nH]cnc3[C@H]2c2cn3ccccc3n2)nc1 [Example 231, (R)-4-(imidazo[1,2-a]pyridin-2-yl)-5-(5-(trifluoromethyl)pyrimidin-2-yl)-4,5,6,7-tetrahydro-1H-imidazo[4,5-c]pyridine] | < 0.5 µM |
| FC(F)(F)c1cnc(N2CCc3[nH]cnc3[C@@H]2c2cn3ccccc3n2)nc1 [Example 232, (S)-4-(imidazo[1,2-a]pyridin-2-yl)-5-(5-(trifluoromethyl)pyrimidin-2-yl)-4,5,6,7-tetrahydro-1H-imidazo[4,5-c]pyridine] | > 5 µM |
| O=C(CC1CC1)N1CCc2[nH]cnc2[C@@H]1c1cn2ccccc2n1 [Example 237, (S)-2-cyclopropyl-1-(4-(imidazo[1,2-a]pyridin-2-yl)-6,7-dihydro-1H-imidazo[4,5-c]pyridin-5(4H)-yl)ethanone] | > 5 µM |
| O=C(CC1CC1)N1CCc2[nH]cnc2[C@H]1c1cn2ccccc2n1 [Example 238, (R)-2-cyclopropyl-1-(4-(imidazo[1,2-a]pyridin-2-yl)-6,7-dihydro-1H-imidazo[4,5-c]pyridin-5(4H)-yl)ethanone] | < 0.5 µM |
| O=C(c1oc(C2CC2)nc1C(F)(F)F)N1CCc2[nH]cnc2[C@H]1c1cn2ccccc2n1 [Example 240, (R)-(2-cyclopropyl-4-(trifluoromethyl)oxazol-5-yl)(4-(imidazo[1,2-a]pyridin-2-yl)-6,7-dihydro-1H-imidazo[4,5-c]pyridin-5(4H)-yl)methanone] | < 0.5 µM |
| O=C(CCC1CC1)N1CCc2[nH]cnc2[C@@H]1c1cn2ccccc2n1 [Example 241, (S)-3-cyclopropyl-1-(4-(imidazo[1,2-a]pyridin-2-yl)-6,7-dihydro-1H-imidazo[4,5-c]pyridin-5(4H)-yl)propan-1-one] | > 5 µM |
| O=C(CCC1CC1)N1CCc2[nH]cnc2[C@H]1c1cn2ccccc2n1 [Example 242, (R)-3-cyclopropyl-1-(4-(imidazo[1,2-a]pyridin-2-yl)-6,7-dihydro-1H-imidazo[4,5-c]pyridin-5(4H)-yl)propan-1-one] | < 0.5 µM |
| O=C(c1cnc(C2(F)CCC2)s1)N1CCc2[nH]cnc2[C@H]1c1cn2ccccc2n1 [Example 251, (R)-(2-(1-fluorocyclobutyl)thiazol-5-yl)(4-(imidazo[1,2-a]pyridin-2-yl)-6,7-dihydro-1H-imidazo[4,5-c]pyridin-5(4H)-yl)methanone] | 1 to 5 µM |
| O=C(c1cnc(C2(F)CCC2)s1)N1CCc2[nH]cnc2[C@@H]1c1cn2ccccc2n1 [Example 252, (S)-(2-(1-fluorocyclobutyl)thiazol-5-yl)(4-(imidazo[1,2-a]pyridin-2-yl)-6,7-dihydro-1H-imidazo[4,5-c]pyridin-5(4H)-yl)methanone] | > 5 µM |
| O=C(CC1CC(F)C1)N1CCc2[nH]cnc2[C@@H]1c1cn2ccccc2n1 (stereo partly drawn) [Example 253, (S)-2-(3-fluorocyclobutyl)-1-(4-(imidazo[1,2-a]pyridin-2-yl)-6,7-dihydro-1H-imidazo[4,5-c]pyridin-5(4H)-yl)ethanone] | 1 to 5 µM |

Further lines, results first:

| AC50 | Structure (SMILES) |
| --- | --- |
| > 5 µM | Cc1ncoc1C(=O)N1CCc2[nH]cnc2[C@@H]1c1cn2ccccc2n1 [Example 227, (S)-(4-(imidazo[1,2-a]pyridin-2-yl)-6,7-dihydro-1H-imidazo[4,5-c]pyridin-5(4H)-yl)(4-methyloxazol-5-yl)methanone] |
| 1 to 5 µM | Cc1ncoc1C(=O)N1CCc2[nH]cnc2[C@H]1c1cn2ccccc2n1 [Example 228, (R)-(4-(imidazo[1,2-a]pyridin-2-yl)-6,7-dihydro-1H-imidazo[4,5-c]pyridin-5(4H)-yl)(4-methyloxazol-5-yl)methanone] |
| > 5 µM | O=C(c1ocnc1C(F)(F)F)N1CCc2[nH]cnc2[C@@H]1c1cn2ccccc2n1 [Example 233, (S)-(4-(imidazo[1,2-a]pyridin-2-yl)-6,7-dihydro-1H-imidazo[4,5-c]pyridin-5(4H)-yl)(4-(trifluoromethyl)oxazol-5-yl)methanone] |
| < 0.5 µM | O=C(c1ocnc1C(F)(F)F)N1CCc2[nH]cnc2[C@H]1c1cn2ccccc2n1 [Example 234, (R)-(4-(imidazo[1,2-a]pyridin-2-yl)-6,7-dihydro-1H-imidazo[4,5-c]pyridin-5(4H)-yl)(4-(trifluoromethyl)oxazol-5-yl)methanone] |
| 1 to 5 µM | O=C(c1ocnc1C1CC1)N1CCc2[nH]cnc2[C@@H]1c1cn2ccccc2n1 [Example 243, (S)-(4-cyclopropyloxazol-5-yl)(4-(imidazo[1,2-a]pyridin-2-yl)-6,7-dihydro-1H-imidazo[4,5-c]pyridin-5(4H)-yl)methanone] |
| 0.5 to 1 µM | O=C(c1ocnc1C1CC1)N1CCc2[nH]cnc2[C@H]1c1cn2ccccc2n1 [Example 244, (R)-(4-cyclopropyloxazol-5-yl)(4-(imidazo[1,2-a]pyridin-2-yl)-6,7-dihydro-1H-imidazo[4,5-c]pyridin-5(4H)-yl)methanone] |
| 0.5 to 1 µM | CC(C)(C)c1ncc(C(=O)N2CCc3[nH]cnc3[C@H]2c2cn3ccccc3n2)s1 [Example 245, (R)-(2-(tert-butyl)thiazol-5-yl)(4-(imidazo[1,2-a]pyridin-2-yl)-6,7-dihydro-1H-imidazo[4,5-c]pyridin-5(4H)-yl)methanone] |
| > 5 µM | CC(C)(C)c1ncc(C(=O)N2CCc3[nH]cnc3[C@@H]2c2cn3ccccc3n2)s1 [Example 246, (S)-(2-(tert-butyl)thiazol-5-yl)(4-(imidazo[1,2-a]pyridin-2-yl)-6,7-dihydro-1H-imidazo[4,5-c]pyridin-5(4H)-yl)methanone] |
| > 5 µM | CC(C)(F)c1ncc(C(=O)N2CCc3[nH]cnc3[C@@H]2c2cn3ccccc3n2)s1 [Example 247, (S)-(2-(2-fluoropropan-2-yl)thiazol-5-yl)(4-(imidazo[1,2-a]pyridin-2-yl)-6,7-dihydro-1H-imidazo[4,5-c]pyridin-5(4H)-yl)methanone] |
| 0.5 to 1 µM | CC(C)(F)c1ncc(C(=O)N2CCc3[nH]cnc3[C@H]2c2cn3ccccc3n2)s1 [Example 248, (R)-(2-(2-fluoropropan-2-yl)thiazol-5-yl)(4-(imidazo[1,2-a]pyridin-2-yl)-6,7-dihydro-1H-imidazo[4,5-c]pyridin-5(4H)-yl)methanone] |
| 0.5 to 1 µM | CC(C)(C)c1ncc(C(=O)N2CCc3[nH]cnc3[C@H]2c2cn3ccccc3n2)o1 [Example 250, (R)-(2-(tert-butyl)oxazol-5-yl)(4-(imidazo[1,2-a]pyridin-2-yl)-6,7-dihydro-1H-imidazo[4,5-c]pyridin-5(4H)-yl)methanone] |

— patent publication US20250262201A1, “COMPOUNDS AND METHODS USEFUL FOR STABILIZING PHENYLALANINE HYDROXYLASE MUTATIONS” (Agios Pharmaceuticals, Inc., priority 2022, published 2025)
